According to patent US20220211038A1, “COMPOSITION AND METHOD FOR PROTECTING PLANT AGAINST DISEASE AND PEST” (SUMITOMO CHEMICAL COMPANY, LIMITED, priority 2019, published 2022):

Legend:
[1] = tested on: Septoria leaf blotch (Mycosphaerella graminicola); experiment: Growth inhibition of Septoria leaf blotch in YBG medium, microtiter plate, absorbance at 600 nm (Test Example 1); format: cell-based; conditions: 18° C., four days
Description: Fluopyram and fluxapyroxad were respectively dissolved in dimethyl sulfoxide, and agent solutions were prepared so that the concentration of each compound was 100 times the concentration described in Table 1. The agent solution was dispensed into each well of a microtiter plate (96 wells) in 1 μl portion, and then 99 μL of YBG medium to which conidia of Septoria leaf blotch (Mycosphaerella graminicola) was inoculated in advance (which was prepared by dissolving 10 g of yeast extract, 10 g of Bacto Peptone, and 20 mL of glycerol into 1 L of water, followed by sterilizing the medium) was dispensed into each of the well to which the agent solution was dispensed. The plate was cultivated at 18° C. for four days, thereby allowing Septoria leaf blotch to undergo proliferation, and the absorbance at 600 nm of a sample in each well of the microtiter plate was then measured to examine a degree of growth of Septoria leaf blotch (hereinafter referred to as “treated group”). Whereas, Septoria leaf blotch was grown similarly to the case of the treated group using dimethyl sulfoxide instead of the agent solution, and the degree of growth was measured (hereinafter referred to as “untreated group”). The efficacy was calculated from each of the obtained degree of growth of the treated group and the untreated group respectively by the following “Equation 1”.
Efficacy (%)=100×(X−Y)/X Equation 1
X: Degree of growth of fungus in the untreated group
Y: Degree of growth of fungus in the treated group

[2] = tested on: powdery mildew (Sphaerotheca fuliginea); experiment: Cucumber powdery mildew control, spray on plantlets (Test Example 2); format: in vivo; conditions: 10 days
Description: Fluopyram and fluxapyroxad were respectively mixed with surfactant and crushed in a grinding equipment to obtain a crushed composition. The crushed composition was then mixed with tap water so as to have the compound at the concentration described in Table 2 to obtain spray liquid. The spray liquid was sprayed onto cucumber (Cultivar: Hanjiro Fushinari) plantlet at run-off water volume. Plantlets were then air dried before artificially inoculated by putting the test plantlets in the same room where cucumber with powdery mildew (Sphaerotheca fuliginea) symptoms were grown. The plantlet were grown in the room for 10 days and the degree of disease severity on leaves was measured (hereinafter referred to as “treated group”).
The same operation was carried out […] (hereinafter referred to as “untreated group”).
The controlling value was calculated from each of the obtained degree of disease severity on leaves of the treated group and the untreated group respectively by the following “Equation 2”.
Controlling value (%)=100×(X−Y)/X Equation 2
X: Degree of disease severity on leaves in the untreated group
Y: Degree of disease severity on leaves in the treated group

**Q.** Which “Efficacy (%)” value ([1]; Fluxapyroxad 0.18 ppm alone) does the source give for `Cn1cc(C(=O)Nc2ccccc2-c2cc(F)c(F)c(F)c2)c(C(F)F)n1` [Fluxapyroxad] here?
**A.** 71%

**Q.** What about the “Efficacy (%)” value ([1]; Fluxapyroxad 0.5 ppm alone) of the same compound?
**A.** 82%

**Q.** What about the “Controlling value (%)” value ([2]; Fluxapyroxad 0.4 mg/L alone) of the same compound?
**A.** 16%

**Q.** And the “Controlling value (%)” value ([2]; Fluxapyroxad 2.0 mg/L alone)?
**A.** 34%

**Q.** For `O=C(NCCc1ncc(C(F)(F)F)cc1Cl)c1ccccc1C(F)(F)F` [Fluopyram], which “Efficacy (%)” value ([1]; Fluopyram 0.1 ppm alone) is on record?
**A.** 24%

**Q.** What about the “Efficacy (%)” value ([1]; Fluopyram 1.75 ppm alone) of the same compound?
**A.** 60%

**Q.** What about the “Controlling value (%)” value ([2]; Fluopyram 0.4 mg/L alone) of the same compound?
**A.** 32%

**Q.** What about the “Controlling value (%)” value ([2]; Fluopyram 4.0 mg/L alone) of the same compound?
**A.** 50%
